Data on ten molecules can be found in ChEMBL document CHEMBL1201862, “PubChem BioAssay data set” (2004).

What all share (test): DTP human tumour cell line panel, 48 h
Experiment [1] relates to 786-0.
Experiment [2] has as its system A549.
The subject of experiment [3] is EKVX.
Experiment [4] concerns HCT-15.
Experiment [5] has as its system IGROV-1.
For experiment [6], the system named is KM12.
For experiment [7], the system named is LOX IMVI.
In experiment [8] the test system is MDA-MB-231.
Experiment [9] relates to MDA-N.
In experiment [10] the test system is NCI-H23.
Experiment [11] has as its system OVCAR-3.
The subject of experiment [12] is OVCAR-4.
Experiment [13] has as its system OVCAR-8.
Experiment [14] concerns PC-3.
Experiment [15] relates to SF-295.
Experiment [16] has as its system SK-OV-3.
Experiment [17] has as its system SN12C.
The test system of experiment [18] is SR.
Experiment [19] relates to T47D.
Experiment [20] has as its system UACC-62.

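Interpolation was linear, between the two tested concentrations surrounding the appropriate level; five concentrations were tested over 48 hours in 96-well plates. At the GI50, growth is halved.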 Active and inactive are the calls of the source. Rule as the data show it: active = GI50 up to about 1.1 µM and inactive = higher. Peptide text beside a SMILES is read from it. * marks the point of attachment. Boc = CC(C)(C)OC(=O)*

As a reminder, the GI50 is the concentration at which growth is held to half of that of the control. In the case of `COC(=O)C(=O)C(C(=O)C(=O)Nc1ccccc1C(C)=O)c1nc2ccc(C(=O)c3ccccc3)cc2nc1O` (stereo not given), the GI50 was > 100 µM (inactive) in [1]; > 100 µM (inactive) in experiment [2]; 92.5 µM (inactive) in experiment [3]; 74 µM in experiment [4]; 20.2 µM (inactive) in experiment [5]; 27 µM (inactive) in experiment [6]. For the same molecule, the GI50 is > 100 µM (inactive) in [7]; 78 µM (inactive) in [8]; 40.2 µM (inactive) in experiment [9]; 35.2 µM (inactive) in experiment [10]; 73.6 µM (inactive) in experiment [11]; > 100 µM (inactive) in [12]. Moreover, the GI50 in experiment [13] was 39.6 µM (inactive); in [14], 44 µM (inactive); in [15], 45.1 µM (inactive); in experiment [16] it was > 100 µM (inactive); in [17], > 100 µM (inactive); in experiment [18] it was 3.77 µM (inactive). Also, the GI50 in experiment [19] was 56.4 µM (inactive); in experiment [20], > 100 µM (inactive).
In the case of `CCSC12CC3c4cccc5c4C(CN5C(=O)c4ccccc4)CC3(O1)N(C)C2=O` (stereo not given), the GI50 in experiment [1] is 36.2 µM (inactive); in experiment [2], 38.9 µM (inactive); in experiment [3], 24.2 µM (inactive); in experiment [4], 29.4 µM; in experiment [5], 31.3 µM (inactive); in experiment [6], 45.4 µM (inactive). Also, the GI50 in experiment [7] was 31.3 µM (inactive); in experiment [8] it was 27.9 µM (inactive); in [9] it was 25.3 µM (inactive); in experiment [10], 24.7 µM (inactive); in experiment [11] it was 40.8 µM (inactive); in experiment [12], 36.9 µM (inactive). For the same molecule, the GI50 in [13] is 31.5 µM (inactive); in experiment [14], 22.9 µM (inactive); in experiment [15], 45.6 µM (inactive); in [16], > 100 µM (inactive); in experiment [17], 17.2 µM (inactive); in [18], 28.7 µM (inactive). Besides, the GI50 was 17.7 µM (inactive) in experiment [19] and 22.5 µM (inactive) in experiment [20].
On to `CCCc1nnc2sc(COc3ccc(OCc4nn5c(CCC)nnc5s4)c(Cl)c3)nn12`, for which the GI50 in experiment [1] was 28.5 µM (inactive); in [2] it was 27.5 µM (inactive); in [3], 14.3 µM (inactive); in [4] it was 24.9 µM; in experiment [5] it was 24.9 µM (inactive); in experiment [6] it was 31 µM (inactive). Also, the GI50 in experiment [7] was 33.7 µM (inactive); in experiment [8] it was 36.1 µM (inactive); in experiment [9], 16.9 µM (inactive); in experiment [10] it was 20.2 µM (inactive); in [11] it was 26 µM (inactive); in experiment [12], 14.7 µM (inactive). Besides, the GI50 in experiment [13] is 31 µM (inactive); in experiment [14] it was 44.2 µM (inactive); in experiment [15], 20.8 µM (inactive); in experiment [16], 36.6 µM (inactive); in [17], 29.4 µM (inactive); in experiment [18], 17.8 µM (inactive). The values for the GI50 in experiment [19] and in experiment [20] were 2.78 µM (inactive) and 13.7 µM (inactive), respectively.
Take `S=C1Nc2ccccc2SC1c1ccccc1` (stereo not given): the GI50 in [1] is 34.9 µM (inactive); in [2], > 100 µM (inactive); in experiment [3], > 100 µM (inactive); in [4], greater than 100 µM; in experiment [5], > 100 µM (inactive); in [6], > 100 µM (inactive). In addition, the GI50 was 49.7 µM (inactive) in experiment [7]; 66.1 µM (inactive) in experiment [8]; > 100 µM (inactive) in [9]; 74.6 µM (inactive) in experiment [10]; 30.5 µM (inactive) in experiment [11]; 46 µM (inactive) in experiment [12]. Besides, the GI50 was > 100 µM (inactive) in [13]; 57.9 µM (inactive) in experiment [14]; 16.4 µM (inactive) in experiment [15]; 35.8 µM (inactive) in experiment [16]; > 100 µM (inactive) in [17]; 30.2 µM (inactive) in experiment [18]. Moreover, the GI50 is 72.6 µM (inactive) in experiment [19] and > 100 µM (inactive) in experiment [20].
In the case of `COC(=O)C(Cc1ccccc1)NC(=O)C(CS)NC(=O)OC(C)(C)C` (stereo not drawn) (Boc-Cys-Phe-OMe; configuration not given here), the GI50 was > 100 µM (inactive) in experiment [1]; > 100 µM (inactive) in [2]; > 100 µM (inactive) in experiment [3]; greater than 100 µM in experiment [4]; > 100 µM (inactive) in experiment [5]; 94.4 µM (inactive) in [6]. Also, the GI50 in [7] was 69.2 µM (inactive); in experiment [8], 26.9 µM (inactive); in [9] it was > 100 µM (inactive); in experiment [10], > 100 µM (inactive); in [11], 88.1 µM (inactive); in experiment [12], 32.1 µM (inactive). The GI50 in experiment [13] was > 100 µM (inactive); in experiment [14], > 100 µM (inactive); in experiment [15], > 100 µM (inactive); in experiment [16] it was > 100 µM (inactive); in [17], > 100 µM (inactive); in experiment [18], 27.2 µM (inactive). Moreover, the GI50 in experiment [19] and in experiment [20] was > 100 µM (inactive) each time.
As for `COc1ccc(/[N+]([O-])=C/c2ccc(OC(=S)S)c(OC)c2)cc1`, the GI50 was 50.6 µM (inactive) in experiment [1]; 40.6 µM (inactive) in [2]; 31.4 µM (inactive) in [3]; 22.2 µM in [4]; 39.3 µM (inactive) in [5]; 8.39 µM (inactive) in experiment [6]. Moreover, the GI50 in experiment [7] is 38.5 µM (inactive); in experiment [8] it was > 100 µM (inactive); in experiment [9] it was 21.3 µM (inactive); in experiment [10] it was 29.6 µM (inactive); in experiment [11], 43.9 µM (inactive); in experiment [12], 17.4 µM (inactive). The GI50 in experiment [13] is 38.5 µM (inactive); in experiment [14], 42.4 µM (inactive); in experiment [15] it was 28.6 µM (inactive); in [16], 47.1 µM (inactive); in experiment [17], 37.7 µM (inactive); in experiment [18], 15.6 µM (inactive). In addition, the GI50 in experiment [19] is 28.6 µM (inactive); in experiment [20], 99.3 µM (inactive).
Consider `O=[N+]([O-])c1ccc2c(c1)nc(Cc1ccc(Cl)cc1)n2C[C@@H]1CCCN2CCCCC12` (stereo not given in full), for which the GI50 is 11.8 µM (inactive) in experiment [1]; 19.2 µM (inactive) in experiment [2]; 8.39 µM (inactive) in experiment [3]; 16 µM in experiment [4]; 9.84 µM (inactive) in experiment [5]; 13.5 µM (inactive) in [6]. The GI50 in experiment [7] is 13.7 µM (inactive); in [8], 16.5 µM (inactive); in experiment [9], 12.9 µM (inactive); in experiment [10] it was 14.9 µM (inactive); in [11], 15.5 µM (inactive); in experiment [12] it was 9.86 µM (inactive). Further, the GI50 was 15.1 µM (inactive) in experiment [13]; 20.2 µM (inactive) in experiment [14]; 15.3 µM (inactive) in experiment [15]; 18.9 µM (inactive) in [16]; 13.6 µM (inactive) in [17]; 22.7 µM (inactive) in experiment [18]. Moreover, the results for the GI50 in [19] and in [20] were 16.7 µM (inactive) and 15.2 µM (inactive), respectively.
With `c1ccc2c(c1)nc1n2CSCC1`, the GI50 in experiment [1] is > 100 µM (inactive); in [2] it was > 100 µM (inactive); in [3], > 100 µM (inactive); in [4], greater than 100 µM; in experiment [5], > 100 µM (inactive); in experiment [6], > 100 µM (inactive). Further, the GI50 in experiment [7], in experiment [8], in [9], in experiment [10], in experiment [11] and in experiment [12] was > 100 µM (inactive) in each case. The GI50 in [13], in [14], in experiment [15], in [16], in experiment [17] and in experiment [18] was > 100 µM (inactive) each time. Further, the GI50 in [19] and in experiment [20] was > 100 µM (inactive) each time.
`O=C(O)[C@@H]1CCC(=O)N1C(c1ccc2c(c1)OCO2)c1ccc2c(c1)OCO2`: the GI50 is > 100 µM (inactive) in [1]; > 100 µM (inactive) in experiment [2]; > 100 µM (inactive) in experiment [3]; greater than 100 µM in experiment [4]; > 100 µM (inactive) in [5]; > 100 µM (inactive) in [6]. Also, the GI50 was > 100 µM (inactive) in [7]; > 100 µM (inactive) in experiment [8]; > 100 µM (inactive) in experiment [9]; > 100 µM (inactive) in experiment [10]; > 100 µM (inactive) in experiment [11]; 35.2 µM (inactive) in experiment [12]. Besides, the GI50 in experiment [13] is > 100 µM (inactive); in [14], > 100 µM (inactive); in experiment [15] it was > 100 µM (inactive); in [16], > 10 µM (inactive); in [17], > 100 µM (inactive); in experiment [18] it was > 100 µM (inactive). In addition, the GI50 in experiment [19] and in experiment [20] was > 100 µM (inactive) each time.
For the molecule `Clc1cc(Cl)nc(Nc2ccc3c(c2)CCC3)n1`, the GI50 was 39.1 µM (inactive) in experiment [1]; 32.6 µM (inactive) in [2]; 20 µM (inactive) in experiment [3]; 33.7 µM in [4]; 16 µM (inactive) in [5]; 21.4 µM (inactive) in [6]. The GI50 in [7] is 32.1 µM (inactive); in experiment [8] it was 51.3 µM (inactive); in [9], 40.1 µM (inactive); in experiment [10] it was 39.6 µM (inactive); in experiment [11], 32 µM (inactive); in experiment [12] it was 61.2 µM (inactive). Besides, the GI50 in experiment [13] is 72.3 µM (inactive); in experiment [14], 61.9 µM (inactive); in experiment [15], 48.5 µM (inactive); in [16], > 100 µM (inactive); in experiment [17], 45.4 µM (inactive); in [18] it was 30.3 µM (inactive). Further, the GI50 in experiment [19] is 69.3 µM (inactive); in [20], 46.1 µM (inactive).
